# In PubChem BioAssay (NCI):
#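 1) Cells in 96-well plates. 2) Compound, 48 h, 5 concentrations. 3) Linear interpolation between surrounding doses. 4) Unreached endpoint = highest concentration. At the GI50, growth is halved. At the TGI there is no net growth.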
# Legend:
# Experiment in all cases: NCI-60 cell line screen, 48 h
# 786-0 renal = tested on: 786-0 renal
# A498 renal = tested on: A498 renal
# A549 NSCLC = tested on: A549 NSCLC
# ACHN renal = tested on: ACHN renal
# BT-549 breast = tested on: BT-549 breast
# CAKI-1 renal = tested on: CAKI-1 renal
# CCRF-CEM leukemia = tested on: CCRF-CEM leukemia
# COLO 205 colon = tested on: COLO 205 colon
# DU-145 prostate = tested on: DU-145 prostate
# EKVX NSCLC = tested on: EKVX NSCLC
# HCC-2998 colon = tested on: HCC-2998 colon
# HCT-116 colon = tested on: HCT-116 colon
# HCT-15 colon = tested on: HCT-15 colon
# HL-60(TB) leukemia = tested on: HL-60(TB) leukemia
# HOP-62 NSCLC = tested on: HOP-62 NSCLC
# HOP-92 NSCLC = tested on: HOP-92 NSCLC
# HS 578T breast = tested on: HS 578T breast
# HT29 colon = tested on: HT29 colon
# IGROV1 ovarian = tested on: IGROV1 ovarian
# K-562 leukemia = tested on: K-562 leukemia
# KM12 colon = tested on: KM12 colon
# LOX IMVI melanoma = tested on: LOX IMVI melanoma
# M14 melanoma = tested on: M14 melanoma
# MALME-3M melanoma = tested on: MALME-3M melanoma
# MCF7 breast = tested on: MCF7 breast
# MDA-MB-231 breast = tested on: MDA-MB-231 breast
# MDA-MB-435 = tested on: MDA-MB-435
# MOLT-4 leukemia = tested on: MOLT-4 leukemia
# NCI-H226 lung = tested on: NCI-H226 lung
# NCI-H23 lung = tested on: NCI-H23 lung
# NCI-H460 lung = tested on: NCI-H460 lung
# NCI-H522 lung = tested on: NCI-H522 lung
# NCI/ADR-RES ovarian = tested on: NCI/ADR-RES ovarian
# OVCAR-4 ovarian = tested on: OVCAR-4 ovarian
# OVCAR-5 ovarian = tested on: OVCAR-5 ovarian
# OVCAR-8 ovarian = tested on: OVCAR-8 ovarian
# PC-3 prostate = tested on: PC-3 prostate
# RPMI-8226 leukemia = tested on: RPMI-8226 leukemia
# RXF 393 renal = tested on: RXF 393 renal
# SF-268 CNS = tested on: SF-268 CNS
# SF-295 CNS = tested on: SF-295 CNS
# SF-539 CNS = tested on: SF-539 CNS
# SK-MEL-2 melanoma = tested on: SK-MEL-2 melanoma
# SK-MEL-28 melanoma = tested on: SK-MEL-28 melanoma
# SK-MEL-5 melanoma = tested on: SK-MEL-5 melanoma
# SK-OV-3 ovarian = tested on: SK-OV-3 ovarian
# SN12C renal = tested on: SN12C renal
# SNB-19 CNS = tested on: SNB-19 CNS
# SNB-75 CNS = tested on: SNB-75 CNS
# SR leukemia = tested on: SR leukemia
# SW-620 colon = tested on: SW-620 colon
# T-47D breast = tested on: T-47D breast
# TK-10 renal = tested on: TK-10 renal
# U251 CNS = tested on: U251 CNS
# UACC-257 melanoma = tested on: UACC-257 melanoma
# UACC-62 melanoma = tested on: UACC-62 melanoma
# UO-31 renal = tested on: UO-31 renal
smiles,measurement,setting,value
CCCC(=O)NC(c1cccnc1)c1ccc2c(C)ccnc2c1O (centres undefined),GI50,786-0 renal,2080 nM
same,TGI,786-0 renal,> 100000 nM
same,GI50,A498 renal,2360 nM
same,TGI,A498 renal,16800 nM
same,GI50,A549 NSCLC,2150 nM
same,TGI,A549 NSCLC,> 100000 nM
same,GI50,ACHN renal,651 nM
same,TGI,ACHN renal,> 100000 nM
same,GI50,BT-549 breast,3930 nM
same,TGI,BT-549 breast,> 100000 nM
same,GI50,CAKI-1 renal,1030 nM
same,TGI,CAKI-1 renal,> 100000 nM
same,GI50,CCRF-CEM leukemia,568 nM
same,TGI,CCRF-CEM leukemia,> 100000 nM
same,GI50,COLO 205 colon,1270 nM
same,TGI,COLO 205 colon,> 100000 nM
same,GI50,DU-145 prostate,1700 nM
same,TGI,DU-145 prostate,> 100000 nM
same,GI50,EKVX NSCLC,892 nM
same,TGI,EKVX NSCLC,20200 nM
same,GI50,HCC-2998 colon,2680 nM
same,TGI,HCC-2998 colon,> 100000 nM
same,GI50,HCT-116 colon,538 nM
same,TGI,HCT-116 colon,> 100000 nM
same,GI50,HCT-15 colon,539 nM
same,TGI,HCT-15 colon,> 100000 nM
same,GI50,HL-60(TB) leukemia,591 nM
same,TGI,HL-60(TB) leukemia,5850 nM
same,GI50,HOP-62 NSCLC,1500 nM
same,TGI,HOP-62 NSCLC,> 100000 nM
same,GI50,HOP-92 NSCLC,6100 nM
same,TGI,HOP-92 NSCLC,> 100000 nM
same,GI50,HS 578T breast,8720 nM
same,TGI,HS 578T breast,> 100000 nM
same,GI50,HT29 colon,2210 nM
same,TGI,HT29 colon,> 100000 nM
same,GI50,IGROV1 ovarian,1870 nM
same,TGI,IGROV1 ovarian,> 100000 nM
same,GI50,K-562 leukemia,851 nM
same,TGI,K-562 leukemia,> 100000 nM
same,GI50,KM12 colon,2280 nM
same,TGI,KM12 colon,> 100000 nM
same,GI50,LOX IMVI melanoma,697 nM
same,TGI,LOX IMVI melanoma,11700 nM
same,GI50,M14 melanoma,1160 nM
same,TGI,M14 melanoma,> 100000 nM
same,GI50,MALME-3M melanoma,2180 nM
same,TGI,MALME-3M melanoma,> 100000 nM
same,GI50,MCF7 breast,1910 nM
same,TGI,MCF7 breast,> 100000 nM
same,GI50,MDA-MB-231 breast,2230 nM
same,TGI,MDA-MB-231 breast,> 100000 nM
same,GI50,MDA-MB-435,2890 nM
same,TGI,MDA-MB-435,> 100000 nM
same,GI50,MOLT-4 leukemia,549 nM
same,TGI,MOLT-4 leukemia,> 100000 nM
same,GI50,NCI-H226 lung,2750 nM
same,TGI,NCI-H226 lung,> 100000 nM
same,GI50,NCI-H23 lung,2540 nM
same,TGI,NCI-H23 lung,> 100000 nM
same,GI50,NCI-H460 lung,576 nM
same,TGI,NCI-H460 lung,> 100000 nM
same,GI50,NCI-H522 lung,2170 nM
same,TGI,NCI-H522 lung,> 100000 nM
same,GI50,NCI/ADR-RES ovarian,442 nM
same,TGI,NCI/ADR-RES ovarian,77500 nM
same,GI50,OVCAR-4 ovarian,995 nM
same,TGI,OVCAR-4 ovarian,> 100000 nM
same,GI50,OVCAR-5 ovarian,2870 nM
same,TGI,OVCAR-5 ovarian,> 100000 nM
same,GI50,OVCAR-8 ovarian,1860 nM
same,TGI,OVCAR-8 ovarian,> 100000 nM
same,GI50,PC-3 prostate,2540 nM
same,TGI,PC-3 prostate,> 100000 nM
same,GI50,RPMI-8226 leukemia,1880 nM
same,TGI,RPMI-8226 leukemia,> 100000 nM
same,GI50,RXF 393 renal,2790 nM
same,TGI,RXF 393 renal,> 100000 nM
same,GI50,SF-268 CNS,1810 nM
same,TGI,SF-268 CNS,> 100000 nM
same,GI50,SF-295 CNS,930 nM
same,TGI,SF-295 CNS,> 100000 nM
same,GI50,SF-539 CNS,1740 nM
same,TGI,SF-539 CNS,> 100000 nM
same,GI50,SK-MEL-2 melanoma,7090 nM
same,TGI,SK-MEL-2 melanoma,> 100000 nM
same,GI50,SK-MEL-28 melanoma,2300 nM
same,TGI,SK-MEL-28 melanoma,> 100000 nM
same,GI50,SK-MEL-5 melanoma,1690 nM
same,TGI,SK-MEL-5 melanoma,3650 nM
same,GI50,SK-OV-3 ovarian,2100 nM
same,TGI,SK-OV-3 ovarian,> 100000 nM
same,GI50,SN12C renal,2370 nM
same,TGI,SN12C renal,> 100000 nM
same,GI50,SNB-19 CNS,3420 nM
same,TGI,SNB-19 CNS,> 100000 nM
same,GI50,SNB-75 CNS,3130 nM
same,TGI,SNB-75 CNS,> 100000 nM
same,GI50,SR leukemia,472 nM
same,TGI,SR leukemia,> 100000 nM
same,GI50,SW-620 colon,1940 nM
same,TGI,SW-620 colon,> 100000 nM
same,GI50,T-47D breast,1290 nM
same,TGI,T-47D breast,> 100000 nM
same,GI50,TK-10 renal,3130 nM
same,TGI,TK-10 renal,> 100000 nM
same,GI50,U251 CNS,1600 nM
same,TGI,U251 CNS,> 100000 nM
same,GI50,UACC-257 melanoma,2460 nM
same,TGI,UACC-257 melanoma,> 100000 nM
same,GI50,UACC-62 melanoma,2110 nM
same,TGI,UACC-62 melanoma,20400 nM
same,GI50,UO-31 renal,548 nM
same,TGI,UO-31 renal,41300 nM
